According to article PMC9820430, “New Affordable Methods for Large-Scale Isolation of Major Olive Secoiridoids and Systematic Comparative Study of Their Antiproliferative/Cytotoxic Effect on Multiple Cancer Cell Lines of Different Cancer Origins” (International Journal of Molecular Sciences, 2022):
Marks after values point to notes of the source that are not given here.

Legend:
HT-29 = assay: Annexin V-FITC/PI staining, flow cytometry; assay type: cell-based, human; settings: 48 h at EC50
Excerpt: (§1) To discern whether cell death triggered by OOPs treatment occurred via apoptosis or necrosis under the experimental conditions applied in this study, live cells treated with OOPs were stained simultaneously with FITC-conjugated annexin V and propidium iodide (PI). Annexin V binds to phosphatidylserine (PS) translocating from the inner to the outer leaflet of the plasma membrane in apoptotic cells. Therefore, annexin V-FITC binding to PS labels live apoptotic cells with green FL. […] PS exposure to the extracellular space and cell membrane permeability were analyzed by flow cytometry as described in detail in the Experimental Section. […] OOP concentrations used were equal to the EC50 values for each cell line (Table 1). annexin V and PI staining discriminated between early- (i.e., annexin V +ve and PI −ve) and late-apoptotic cells (i.e., annexin V +ve and PI +ve), as well as between necrotic (i.e., annexin V −ve and PI +ve) and live (i.e., annexin V −ve and PI −ve) cells (Table 4).
(§2) Apoptosis and necrosis were assessed by double staining with annexin V-FITC and propidium iodide (PI) and were analyzed using flow cytometry (FACS). Human cancer cells were plated in 96-well culture plates in 100 μL of complete medium and were allowed to adhere overnight (~16 h). […] In detail, 0.5 μL of a 500× stock of each tested compound in DMSO was added directly into each well in a final volume of 250 μL culture medium and was gently mixed by pipetting. Control wells were prepared under the same experimental conditions by adding only DMSO at a final concentration of 0.2% (v/v). At the end of the treatment, the cells were detached by trypsinization, media with serum was added to deactivate trypsin, and the cells from three wells were pooled together by centrifugation (1000 rpm, 5 min, 24 °C), washed with cold PBS, centrifuged (1000 rpm, 5 min, 24 °C) and finally resuspended in cold 1× annexin V binding buffer (10 mM HEPES pH = 7.4, 150 mM NaCl, 2.5 mM CaCl2) at a density of 10^4 cells/mL. Staining was performed by incubating with annexin V- FITC and propidium iodide (PI; BioLegend) for 15 min at room temperature in the dark, according to the manufacturer’s instructions. Negative control samples consisted of cells treated only with 0.2% (v/v) DMSO for the same incubation time length (i.e., 48 h). Cells treated with Triton X-100 (0.25% (v/v)) for 5 min at 4 °C were used as controls for 100% permeabilization of the plasma membrane and maximum fluorescence staining with PI (positive control for cells in necrosis). The presence of live, apoptotic or necrotic cells was assessed with the FACS Calibur (Becton–Dickinson, San Jose, CA, USA). In total, 10,000 cells were analyzed per measurement and the acquired data were analyzed using the FlowJo V.10.0.8 software (Tree Star Inc., Ashland, OR, USA). Each condition was analyzed in duplicate, and the results presented are from 2 or 3 independent experiments.
(§3) Data showing OOPs’ apoptotic/necrotic effect were derived from two or three independent experiments and were presented as the means ± SE of the percentage (%) of both annexin V-positive cells (early apoptotic events) and % of annexin V/PI positive cells (late apoptotic events) over the whole cell population normalized to the corresponding events of the control cells, as determined using the FlowJo software.

MCF-7 = assay: Annexin V-FITC/PI staining, flow cytometry; assay type: cell-based, human; settings: 48 h at EC50
Excerpt: as §1, §2, §3

A2058 = assay: Annexin V-FITC/PI staining, flow cytometry; assay type: cell-based, human; settings: 48 h at EC50
Excerpt: as §1, §2, §3

NHDF = assay: ATP-based luminescence cell viability assay (ViaLight), 72 h; settings: NHDF (normal human dermal fibroblasts); 72 h treatment; read-out: EC50 Values of Olive Oil Polyphenols
Protocol: (§4) The antiproliferative/cytotoxic effects of the selected OOPs on each cell line were assessed by measuring the cellular ATP levels after 72 h treatments using an ATP-based luminescence assay. This assay, initially developed as a tumor chemosensitivity assay, has shown considerable promise as a general in vitro toxicity assay due to its high sensitivity that allows the detection of a small number of cells. Consequently, it can be applied to both cancer cell lines and primary tissue cells. […] The EC50 values were calculated by nonlinear regression (curve fit) using a sigmoidal dose–response equation (Figure 2A and Figure S2).
(§5) The OOPs tested in this study were first dissolved in an appropriate DMSO volume such as to prepare a final stock solution of 50 mM, which was further used to prepare various compound concentrations in DMSO-based solutions. The final DMSO concentration in the cell culture was maintained constant in all treated groups of any given experiment and never exceeded the value of 0.2% (v/v). For the treatment experiments, cells were plated in 96-well culture plates, in 100 μL of complete medium at a seeding density of 5000–10,000 cells/well—depending on cells’ size and doubling time—and were allowed to adhere overnight (~16 h). The next day, 150 μL of complete medium was added to each well and the cells were treated with various concentrations of OOPs. Each concentration was tested in triplicate and was repeated 2–3 times. To prepare the final concentration solutions, 0.5 μL of a 500× stock of each tested compound in DMSO was added directly into each well in a final volume of 250 μL culture medium and was gently mixed by pipetting. Control wells were prepared under the same experimental conditions by adding only DMSO at a final concentration of 0.2% (v/v). Compounds were not renewed during the entire period of cell exposure. All cells were cultured at 37 °C in a 5% (v/v) CO2 for 24, 48 or 72 h.
Briefly, after the treatment with OOPs, the adapted medium was removed from the dish wells and the cells were washed twice with medium without FBS. Then, the C-lysis (LT27-076) was diluted in PBS (1:2) and a volume of 50 μL was added to each well. Cells were incubated with C-lysis for at least 10 min. Finally, an equal volume of lysed cells from each well and ATP monitoring reagent (AMR; LT27-212) was transferred to the wells of a white-walled illuminometer plate (Greiner bio-one; 655074). Cell viability was quantified by measuring luminescence using a multi-mode microplate reader Safire^2 Tecan (software Magellan V6.00 STD.2PC WIN.20000/XP).

[1] = tested on: three breast cancer cell lines (MDA-MB-231, SK-BR-3 and MCF-7); assay: ATP-based luminescence cell viability assay, breast panel; design: species or system human; settings: Homo sapiens; MDA-MB-231, SK-BR-3 and MCF-7; 72 h
Protocol: as §4
The calculated EC50 values ranged between 9.1–100 μΜ (Table 1). The bioactivity of the oleocanthalic acid (7), studied here for the first time for its antiproliferative/cytotoxic activity, was initially evaluated systematically in the three breast cancer cell lines using a concentration range of 10–100 μM. In all cases, the viability measured was ≥80%, predicting EC50 values > 100 μΜ. […] For this reason, oleocanthalic acid (7) was excluded from the rest of this study.
as §5
Briefly, after the treatment with OOPs, the adapted medium was removed from the dish wells and the cells were washed twice with medium without FBS. Then, the C-lysis (LT27-076) was diluted in PBS (1:2) and a volume of 50 μL was added to each well. […] Cell viability was quantified by measuring luminescence using a multi-mode microplate reader Safire^2 Tecan (software Magellan V6.00 STD.2PC WIN.20000/XP).

Row | Compound | % Cell Viability (HT-29) | Early Apoptotic (% ± S.D.) (HT-29) | Late Apoptotic (% ± S.D.) (HT-29) | Total Apoptotic (%) (HT-29) | % Cell Viability (MCF-7) | Early Apoptotic (% ± S.D.) (MCF-7) | Late Apoptotic (% ± S.D.) (MCF-7) | Total Apoptotic (%) (MCF-7) | % Cell Viability (A2058) | Early Apoptotic (% ± S.D.) (A2058) | Late Apoptotic (% ± S.D.) (A2058) | Total Apoptotic (%) (A2058) | EC50 (NHDF) | EC50 [1]
1 | COC(=O)C1=COC(C)[C@@H](C=O)[C@@H]1CC(=O)OCCc1ccc(O)c(O)c1 (mixture of isomers) [3a,b, oleuropein aglycone] | 41 ^a % | 6.95 ± 1.5% | 1.55 ± 1.5% | 8.50 ± 1.8 ^a % | 69% | 7.03 ± 0.3% | 1.29 ± 0.8% | 8.31 ± 1.2% | 24% | 11.88 ± 2.3% | 7.26 ± 1.6% | 19.14 ± 0.7% | 42.7 ± 0.5 µM | 17.7 to 32.2 µM
2 | C/C=C(/C=O)[C@@H](CC=O)CC(=O)OCCc1ccc(O)cc1 [compound 1, oleocanthal] | 66% | 5.53 ± 1.1% | 6.10 ± 4.3% | – | 65% | 6.30 ± 2.3% | 3.77 ± 0.8% | 10.07 ± 3.1% | 36% | 5.05 ± 2.7% | 2.35 ± 1.7% | 7.40 ± 4.4% | 24.7 ± 0.4 µM | 10.5 to 24.6 µM
3 | ligstroside aglycone [4a,b] | – | – | – | – | – | – | – | – | – | – | – | – | 46.5 ± 5 µM | –
4 | C/C=C(/C=O)[C@@H](CC=O)CC(=O)OCCc1ccc(O)c(O)c1 [compound 2, oleacein] | – | – | – | – | – | – | – | – | – | – | – | – | 49 ± 1.2 µM | –
